# Source: ChEMBL document CHEMBL4043168, “The design and SAR of a novel series of 2-aminopyridine based LRRK2 inhibitors” (Bioorg Med Chem Lett, 2017)
# Tests used:
# [1] = biological target: 5'-AMP-activated protein kinase catalytic subunit alpha-2 (Homo sapiens) (UniProt P54646); assay: Inhibition of AMPKa2 labeling at conserved Lys1 (VAVKILNR) in human PBMC at 1 uM
# [2] = biological target: Calcium/calmodulin-dependent protein kinase type 1D (Homo sapiens) (UniProt Q8IU85); assay: Inhibition of CaMK1d labeling at conserved Lys2 (DLKPENLLYYSQDEESK) in human PBMC at 1 uM
# [3] = biological target: Diacylglycerol kinase alpha (Homo sapiens) (UniProt P23743); assay: Inhibition of DGKA labeling at activation Loop (IDPVPNTHPLLVFVNPKSGGK) in human PBMC at 1 uM
# [4] = biological target: Inhibitor of nuclear factor kappa-B kinase subunit alpha (Homo sapiens) (UniProt O15111); assay: Inhibition of IKKa conserved Lys2 (DLKPENIVLQDVGGK) in human PBMC at 1 uM
# Inhibitor of nuclear factor kappa-B kinase subunit alpha (Homo sapiens), sequence (O15111 whole entry): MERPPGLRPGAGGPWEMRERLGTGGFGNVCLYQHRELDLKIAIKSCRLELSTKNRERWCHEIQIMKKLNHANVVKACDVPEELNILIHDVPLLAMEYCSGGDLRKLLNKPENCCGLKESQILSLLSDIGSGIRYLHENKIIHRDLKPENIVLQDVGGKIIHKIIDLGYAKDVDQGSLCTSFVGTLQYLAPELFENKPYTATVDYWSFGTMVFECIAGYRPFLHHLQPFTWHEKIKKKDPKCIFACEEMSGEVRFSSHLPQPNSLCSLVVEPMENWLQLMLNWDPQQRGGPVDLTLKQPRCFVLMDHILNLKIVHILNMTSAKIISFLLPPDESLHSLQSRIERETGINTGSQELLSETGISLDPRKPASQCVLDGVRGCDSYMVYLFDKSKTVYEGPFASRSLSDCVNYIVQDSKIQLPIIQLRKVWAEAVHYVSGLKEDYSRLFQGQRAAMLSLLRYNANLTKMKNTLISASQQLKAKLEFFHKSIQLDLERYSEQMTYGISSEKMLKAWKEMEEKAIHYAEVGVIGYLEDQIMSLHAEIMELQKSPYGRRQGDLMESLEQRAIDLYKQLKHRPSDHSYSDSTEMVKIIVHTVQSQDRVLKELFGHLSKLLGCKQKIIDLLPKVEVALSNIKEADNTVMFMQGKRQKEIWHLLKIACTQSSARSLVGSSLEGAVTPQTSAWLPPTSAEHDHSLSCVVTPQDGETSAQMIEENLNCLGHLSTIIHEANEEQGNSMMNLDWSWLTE
# [5] = biological target: Serine/threonine-protein kinase TBK1 (Homo sapiens) (UniProt Q9UHD2); assay: Inhibition of TBK1 conserved Lys2 (DIKPGNIMR) in human PBMC at 1 uM
# [6] = biological target: Interleukin-1 receptor-associated kinase 1 (Homo sapiens) (UniProt P51617); assay: Inhibition of IRAK1 conserved Lys2 (AIQFLHQDSPSLIHGDIKSSNVLLDER) in human PBMC at 1 uM
# [7] = biological target: Mitogen-activated protein kinase 9 (Homo sapiens) (UniProt P45984); assay: Inhibition of JNK2 conserved Lys2 (DLKPSNIVVK) in human PBMC at 1 uM
# Mitogen-activated protein kinase 9 (Homo sapiens), sequence (P45984 whole entry, looked up): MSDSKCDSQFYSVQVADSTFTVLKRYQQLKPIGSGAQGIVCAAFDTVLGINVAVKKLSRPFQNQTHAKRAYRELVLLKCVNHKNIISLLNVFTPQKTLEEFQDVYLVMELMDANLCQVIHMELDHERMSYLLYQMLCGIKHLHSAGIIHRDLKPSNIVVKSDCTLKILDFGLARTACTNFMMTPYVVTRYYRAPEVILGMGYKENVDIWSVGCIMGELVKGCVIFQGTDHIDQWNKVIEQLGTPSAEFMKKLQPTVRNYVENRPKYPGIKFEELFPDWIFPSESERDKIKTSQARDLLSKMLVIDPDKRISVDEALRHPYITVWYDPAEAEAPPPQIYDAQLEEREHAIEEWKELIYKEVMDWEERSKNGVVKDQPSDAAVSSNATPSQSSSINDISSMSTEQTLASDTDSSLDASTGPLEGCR
# [8] = biological target: Mitogen-activated protein kinase kinase kinase 15 (Homo sapiens) (UniProt Q6ZN16); assay: Inhibition of MAP3K15 conserved Lys1 (IAIKEIPER) in human PBMC at 1 uM
# Mitogen-activated protein kinase kinase kinase 15 (Homo sapiens), sequence (Q6ZN16 whole entry): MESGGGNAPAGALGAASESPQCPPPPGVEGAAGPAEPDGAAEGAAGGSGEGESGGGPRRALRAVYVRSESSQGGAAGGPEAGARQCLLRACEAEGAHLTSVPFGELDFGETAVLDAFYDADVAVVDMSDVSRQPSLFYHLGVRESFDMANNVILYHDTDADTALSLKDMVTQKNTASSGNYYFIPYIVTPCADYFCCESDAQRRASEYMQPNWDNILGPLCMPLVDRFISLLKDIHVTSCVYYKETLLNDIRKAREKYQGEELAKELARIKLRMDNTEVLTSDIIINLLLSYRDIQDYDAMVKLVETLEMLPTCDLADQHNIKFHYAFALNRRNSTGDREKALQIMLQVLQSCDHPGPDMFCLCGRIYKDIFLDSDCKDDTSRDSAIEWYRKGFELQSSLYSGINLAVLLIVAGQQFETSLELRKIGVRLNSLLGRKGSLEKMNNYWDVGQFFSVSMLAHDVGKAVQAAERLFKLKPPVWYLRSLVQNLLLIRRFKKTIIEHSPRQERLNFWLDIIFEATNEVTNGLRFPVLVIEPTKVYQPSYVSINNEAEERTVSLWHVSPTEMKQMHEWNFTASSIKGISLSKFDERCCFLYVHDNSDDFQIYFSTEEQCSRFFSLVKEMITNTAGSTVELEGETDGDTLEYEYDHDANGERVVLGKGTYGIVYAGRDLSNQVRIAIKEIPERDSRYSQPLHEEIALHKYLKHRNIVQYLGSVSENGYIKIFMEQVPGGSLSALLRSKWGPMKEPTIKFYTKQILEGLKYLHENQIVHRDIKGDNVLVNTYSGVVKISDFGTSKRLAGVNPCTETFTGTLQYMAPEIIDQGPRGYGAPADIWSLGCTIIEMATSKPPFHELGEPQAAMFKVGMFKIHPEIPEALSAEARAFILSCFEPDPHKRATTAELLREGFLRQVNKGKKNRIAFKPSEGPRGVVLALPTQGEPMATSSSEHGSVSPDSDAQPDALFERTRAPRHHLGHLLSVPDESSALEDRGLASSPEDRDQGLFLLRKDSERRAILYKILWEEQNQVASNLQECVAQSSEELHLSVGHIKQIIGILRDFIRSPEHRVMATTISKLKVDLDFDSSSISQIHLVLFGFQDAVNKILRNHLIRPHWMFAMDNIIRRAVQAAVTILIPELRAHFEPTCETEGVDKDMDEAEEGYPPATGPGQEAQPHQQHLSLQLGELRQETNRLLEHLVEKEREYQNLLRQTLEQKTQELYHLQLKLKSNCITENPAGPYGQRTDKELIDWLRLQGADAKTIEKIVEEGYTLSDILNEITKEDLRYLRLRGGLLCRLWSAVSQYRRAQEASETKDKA
# [9] = biological target: T1, Serine/threonine-protein kinase 4 (Homo sapiens) (UniProt Q13043); assay: Inhibition of MST1 conserved Lys1 ETGQIVAIKQVPVESDLQEIIK in human PBMC at 1 uM
# T1 sequence (whole entry): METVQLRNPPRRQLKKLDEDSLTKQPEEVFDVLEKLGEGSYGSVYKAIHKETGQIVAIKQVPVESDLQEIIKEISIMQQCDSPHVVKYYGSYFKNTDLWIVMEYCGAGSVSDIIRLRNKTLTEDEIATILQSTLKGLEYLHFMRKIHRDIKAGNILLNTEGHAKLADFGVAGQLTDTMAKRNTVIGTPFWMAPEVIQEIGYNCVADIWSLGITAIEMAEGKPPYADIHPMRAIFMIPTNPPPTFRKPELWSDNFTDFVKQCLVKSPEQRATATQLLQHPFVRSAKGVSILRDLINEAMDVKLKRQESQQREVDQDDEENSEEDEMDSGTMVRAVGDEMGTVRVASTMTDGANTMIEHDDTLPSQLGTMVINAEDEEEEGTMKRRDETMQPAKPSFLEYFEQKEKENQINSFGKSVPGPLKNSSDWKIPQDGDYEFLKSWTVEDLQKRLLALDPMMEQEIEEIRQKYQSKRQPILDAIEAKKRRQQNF
# [10] = biological target: Serine/threonine-protein kinase Nek7 (Homo sapiens) (UniProt Q8TDX7); assay: Inhibition of NEK7 conserved Lys2 (DIKPANVFITATGVVK) in human PBMC at 1 uM
# Serine/threonine-protein kinase Nek7 (Homo sapiens), sequence (Q8TDX7 whole entry, looked up): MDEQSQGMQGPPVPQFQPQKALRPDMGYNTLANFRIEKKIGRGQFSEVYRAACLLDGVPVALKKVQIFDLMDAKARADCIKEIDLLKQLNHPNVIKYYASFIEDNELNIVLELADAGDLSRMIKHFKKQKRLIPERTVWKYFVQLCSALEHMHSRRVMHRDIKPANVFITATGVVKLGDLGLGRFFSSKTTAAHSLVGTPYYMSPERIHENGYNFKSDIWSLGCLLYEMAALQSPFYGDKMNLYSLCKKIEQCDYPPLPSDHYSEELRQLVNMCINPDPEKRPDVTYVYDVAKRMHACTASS
# [11] = biological target: Serine/threonine-protein kinase Nek7 (Homo sapiens) (UniProt Q8TDX7); assay: Inhibition of NEK7 conserved Lys1 (AACLLDGVPVALKK) in human PBMC at 1 uM
# [12] = biological target: Ribosomal protein S6 kinase beta-2 (Homo sapiens) (UniProt Q9UBS0); assay: Inhibition of p70S6Kb ATP binding site (GGYGKVFQVR) in human PBMC at 1 uM
# [13] = biological target: Receptor-interacting serine/threonine-protein kinase 3 (Homo sapiens) (UniProt Q9Y572); assay: Inhibition of RIPK3 conserved Lys2 (DLKPSNVLLDPELHVK) in human PBMC at 1 uM
# [14] = biological target: Ribosomal protein S6 kinase alpha-3 (Homo sapiens) (UniProt P51812); assay: Inhibition of RSK2 domain1 activation Loop (LTDFGLSKESIDHEKK) in human PBMC at 1 uM
# [15] = biological target: Serine/threonine-protein kinase 32C (Homo sapiens) (UniProt Q86UX6); assay: Inhibition of YANK3 conserved Lys2 (DVKPDNILLDER) in human PBMC at 1 uM
# Serine/threonine-protein kinase 32C (Homo sapiens), sequence (Q86UX6 whole entry): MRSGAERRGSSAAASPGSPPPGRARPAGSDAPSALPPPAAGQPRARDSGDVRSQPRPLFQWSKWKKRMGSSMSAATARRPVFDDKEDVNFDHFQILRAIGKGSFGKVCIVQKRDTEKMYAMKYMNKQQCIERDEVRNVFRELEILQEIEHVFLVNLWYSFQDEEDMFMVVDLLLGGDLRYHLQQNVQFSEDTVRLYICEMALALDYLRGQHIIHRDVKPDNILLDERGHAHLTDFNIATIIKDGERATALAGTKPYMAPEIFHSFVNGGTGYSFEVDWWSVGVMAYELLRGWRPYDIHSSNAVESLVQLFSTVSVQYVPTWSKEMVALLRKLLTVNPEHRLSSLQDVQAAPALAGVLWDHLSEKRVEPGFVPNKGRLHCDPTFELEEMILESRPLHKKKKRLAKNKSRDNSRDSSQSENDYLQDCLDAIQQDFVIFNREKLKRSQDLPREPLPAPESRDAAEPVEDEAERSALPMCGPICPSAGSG
# [16] = biological target: RAC-alpha serine/threonine-protein kinase (Homo sapiens) (UniProt P31749); assay: Inhibition of AKT1 labeling at ATP binding site (GTFGKVILVK) in human PBMC at 0.1 uM
# RAC-alpha serine/threonine-protein kinase (Homo sapiens), sequence (P31749 whole entry): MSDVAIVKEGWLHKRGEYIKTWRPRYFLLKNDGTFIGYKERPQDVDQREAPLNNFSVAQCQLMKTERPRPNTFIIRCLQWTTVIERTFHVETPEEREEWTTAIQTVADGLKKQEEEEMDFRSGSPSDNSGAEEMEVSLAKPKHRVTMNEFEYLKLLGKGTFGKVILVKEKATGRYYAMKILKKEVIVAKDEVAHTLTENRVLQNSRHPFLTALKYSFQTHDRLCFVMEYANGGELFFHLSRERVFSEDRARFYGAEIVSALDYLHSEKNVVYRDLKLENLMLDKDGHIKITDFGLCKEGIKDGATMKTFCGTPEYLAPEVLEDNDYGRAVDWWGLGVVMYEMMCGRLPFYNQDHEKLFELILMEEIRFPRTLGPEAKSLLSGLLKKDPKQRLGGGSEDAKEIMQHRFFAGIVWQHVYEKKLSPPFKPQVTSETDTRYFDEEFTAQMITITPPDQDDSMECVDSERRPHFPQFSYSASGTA
# [17] = biological target: Cyclin-dependent kinase 2 (Homo sapiens) (UniProt P24941); assay: Inhibition of CDK2 labeling at conserved Lys2 (DLKPQNLLINTEGAIK) in human PBMC at 0.1 uM
# [18] = biological target: Tyrosine-protein kinase Fgr (Homo sapiens) (UniProt P09769); assay: Inhibition of FGR conserved Lys1 (LIKDDEYNPCQGSKFPIK) in human PBMC at 0.1 uM
# [19] = biological target: Tyrosine-protein kinase Fyn (Homo sapiens) (UniProt P06241); assay: Inhibition of FYN activation Loop (QGAKFPIKWTAPEAALYGR) in human PBMC at 0.1 uM
# Tyrosine-protein kinase Fyn (Homo sapiens), sequence (P06241 2-537 limits assumed): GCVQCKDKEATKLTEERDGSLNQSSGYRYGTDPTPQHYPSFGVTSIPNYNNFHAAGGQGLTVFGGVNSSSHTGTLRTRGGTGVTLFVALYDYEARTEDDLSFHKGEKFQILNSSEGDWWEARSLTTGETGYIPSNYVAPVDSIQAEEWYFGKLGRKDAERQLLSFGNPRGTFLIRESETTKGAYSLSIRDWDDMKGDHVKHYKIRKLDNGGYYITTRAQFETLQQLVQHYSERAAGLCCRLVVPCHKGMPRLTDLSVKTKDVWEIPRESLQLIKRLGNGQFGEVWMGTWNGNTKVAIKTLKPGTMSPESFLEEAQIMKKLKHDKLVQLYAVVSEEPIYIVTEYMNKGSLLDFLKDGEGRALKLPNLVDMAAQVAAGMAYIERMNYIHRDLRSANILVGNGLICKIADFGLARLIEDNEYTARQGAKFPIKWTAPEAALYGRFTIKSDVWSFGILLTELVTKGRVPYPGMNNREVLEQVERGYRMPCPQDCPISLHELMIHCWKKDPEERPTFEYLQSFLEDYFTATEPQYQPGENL
# [20] = biological target: Tyrosine-protein kinase HCK (Homo sapiens) (UniProt P08631); assay: Inhibition of HCK activation Loop (EGAKFPIKWTAPEAINFGSFTIK) in human PBMC at 0.1 uM
# [21] = biological target: Tyrosine-protein kinase Lyn (Homo sapiens) (UniProt P07948); assay: Inhibition of LYN activation Loop (EGAKFPIKWTAPEAINFGCFTIK) in human PBMC at 0.1 uM
# [22] = biological target: Dual specificity mitogen-activated protein kinase kinase 1 (Homo sapiens) (UniProt Q02750); assay: Inhibition of MAP2K1 conserved Lys2 (IMHRDVKPSNILVNSR) in human PBMC at 0.1 uM
# [23] = biological target: Mitogen-activated protein kinase 12 (Homo sapiens) (UniProt P53778); assay: Inhibition of p38g conserved Lys2 (DLKPGNLAVNEDCELK) in human PBMC at 0.1 uM
# [24] = biological target: Interferon-induced, double-stranded RNA-activated protein kinase (Homo sapiens) (UniProt P19525); assay: Inhibition of PKR conserved Lys2 (DLKPSNIFLVDTK) in human PBMC at 0.1 uM
# [25] = biological target: Serine/threonine-protein kinase tousled-like 1 (Homo sapiens) (UniProt Q9UKI8); assay: Inhibition of TLK1 conserved Lys2 (YLNEIKPPIIHYDLKPGNILLVDGTACGEIK) in human PBMC at 0.1 uM
# Serine/threonine-protein kinase tousled-like 1 (Homo sapiens), sequence (Q9UKI8 whole entry): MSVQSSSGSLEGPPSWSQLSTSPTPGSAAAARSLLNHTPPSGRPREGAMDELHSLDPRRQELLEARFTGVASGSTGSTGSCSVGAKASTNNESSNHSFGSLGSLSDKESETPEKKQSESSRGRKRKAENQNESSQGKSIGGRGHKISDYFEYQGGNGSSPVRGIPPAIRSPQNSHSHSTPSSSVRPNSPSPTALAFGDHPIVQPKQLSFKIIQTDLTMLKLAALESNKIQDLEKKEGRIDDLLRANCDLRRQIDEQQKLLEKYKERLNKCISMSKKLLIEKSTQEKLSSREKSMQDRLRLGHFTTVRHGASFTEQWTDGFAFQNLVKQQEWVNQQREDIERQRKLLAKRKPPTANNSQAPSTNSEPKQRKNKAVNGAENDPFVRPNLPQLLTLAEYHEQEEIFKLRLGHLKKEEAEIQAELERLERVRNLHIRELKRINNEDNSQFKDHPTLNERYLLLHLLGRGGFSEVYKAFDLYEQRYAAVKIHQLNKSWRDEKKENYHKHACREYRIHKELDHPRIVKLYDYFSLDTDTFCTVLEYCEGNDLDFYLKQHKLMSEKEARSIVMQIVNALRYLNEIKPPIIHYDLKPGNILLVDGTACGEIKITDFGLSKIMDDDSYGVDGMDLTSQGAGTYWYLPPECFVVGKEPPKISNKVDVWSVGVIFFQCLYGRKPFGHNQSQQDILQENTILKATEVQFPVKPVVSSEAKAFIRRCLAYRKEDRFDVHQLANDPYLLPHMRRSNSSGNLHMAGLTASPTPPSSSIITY
smiles,measurement,setting,value
CC(C)n1cc(-c2cc(-c3ccc(CN4CCOCC4)cc3)cnc2N)nn1,inhibition,[1],17.3%
same,inhibition,[2],-0.9%
same,inhibition,[3],-9.6%
same,inhibition,[4],-1.2%
same,inhibition,[5],11%
same,inhibition,[6],17.3%
same,inhibition,[7],23.9%
same,inhibition,[8],-3.3%
same,inhibition,[9],-9.5%
same,inhibition,[10],-9.6%
same,inhibition,[11],2.1%
same,inhibition,[12],-7.8%
same,inhibition,[13],-7.3%
same,inhibition,[14],22%
same,inhibition,[15],-2.1%
same,inhibition,[16],21%
same,inhibition,[17],19.2%
same,inhibition,[18],9.6%
same,inhibition,[19],-4.4%
same,inhibition,[20],-7.4%
same,inhibition,[21],6.1%
same,inhibition,[22],-5.6%
same,inhibition,[23],26.4%
same,inhibition,[24],13.7%
same,inhibition,[25],-3.1%
